Results reported in patent US9926282B2, “Phthalazinones and isoquinolinones as rock inhibitors” (BRISTOL-MYERS SQUIBB COMPANY, priority 2013, dated 2018).
pIC50: −log10 of the molar value.

What was measured:
[1] = molecular target: ROCK2 (Homo sapiens (Human), UniProt O75116); test: ROCK assay (LABCHIP peptide phosphorylation), ROCK2; assay type: biochemical; details: 5 μM ATP, 1.5 μM peptide substrate
[2] = molecular target: ROCK1 (Homo sapiens (Human), UniProt Q13464); test: ROCK assay (LABCHIP peptide phosphorylation), ROCK1; assay type: biochemical; details: 5 μM ATP, 1.5 μM peptide substrate; read-out: ROCK1 IC50
Sequence of ROCK1 (Q13464 whole entry, species assumed): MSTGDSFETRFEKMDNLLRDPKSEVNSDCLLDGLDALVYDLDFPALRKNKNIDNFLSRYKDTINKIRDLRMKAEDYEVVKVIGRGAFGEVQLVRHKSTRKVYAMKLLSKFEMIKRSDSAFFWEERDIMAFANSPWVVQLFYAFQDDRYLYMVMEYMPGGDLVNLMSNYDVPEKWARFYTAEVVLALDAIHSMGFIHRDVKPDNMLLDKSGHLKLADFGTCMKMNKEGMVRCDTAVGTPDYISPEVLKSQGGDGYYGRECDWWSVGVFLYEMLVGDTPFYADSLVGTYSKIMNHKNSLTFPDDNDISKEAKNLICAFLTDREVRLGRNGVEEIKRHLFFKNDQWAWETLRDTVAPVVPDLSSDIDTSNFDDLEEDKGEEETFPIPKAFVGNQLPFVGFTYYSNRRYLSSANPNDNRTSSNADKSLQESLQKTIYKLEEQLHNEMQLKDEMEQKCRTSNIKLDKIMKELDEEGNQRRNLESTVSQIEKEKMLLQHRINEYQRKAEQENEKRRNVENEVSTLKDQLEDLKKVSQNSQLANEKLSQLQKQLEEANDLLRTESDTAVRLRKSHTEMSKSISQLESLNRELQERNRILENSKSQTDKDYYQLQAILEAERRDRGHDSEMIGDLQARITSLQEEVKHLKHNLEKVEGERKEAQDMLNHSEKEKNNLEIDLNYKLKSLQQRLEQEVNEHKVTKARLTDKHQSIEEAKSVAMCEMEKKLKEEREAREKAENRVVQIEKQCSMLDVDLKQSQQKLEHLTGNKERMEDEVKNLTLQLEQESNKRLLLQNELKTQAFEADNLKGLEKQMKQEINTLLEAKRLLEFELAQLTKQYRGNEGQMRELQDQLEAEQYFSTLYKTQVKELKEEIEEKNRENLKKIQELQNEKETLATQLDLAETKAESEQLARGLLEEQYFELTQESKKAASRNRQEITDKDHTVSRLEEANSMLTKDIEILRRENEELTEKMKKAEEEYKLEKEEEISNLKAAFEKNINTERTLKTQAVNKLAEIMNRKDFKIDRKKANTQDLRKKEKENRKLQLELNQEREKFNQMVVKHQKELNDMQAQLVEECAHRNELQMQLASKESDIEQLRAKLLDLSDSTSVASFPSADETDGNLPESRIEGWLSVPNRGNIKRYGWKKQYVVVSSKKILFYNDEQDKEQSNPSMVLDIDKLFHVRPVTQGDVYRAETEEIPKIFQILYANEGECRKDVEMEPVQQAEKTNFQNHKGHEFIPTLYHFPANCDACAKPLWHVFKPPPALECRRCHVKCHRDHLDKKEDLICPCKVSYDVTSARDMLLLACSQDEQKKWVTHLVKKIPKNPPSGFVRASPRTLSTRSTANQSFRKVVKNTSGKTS

Sequence of ROCK2 (O75116 whole entry, species assumed): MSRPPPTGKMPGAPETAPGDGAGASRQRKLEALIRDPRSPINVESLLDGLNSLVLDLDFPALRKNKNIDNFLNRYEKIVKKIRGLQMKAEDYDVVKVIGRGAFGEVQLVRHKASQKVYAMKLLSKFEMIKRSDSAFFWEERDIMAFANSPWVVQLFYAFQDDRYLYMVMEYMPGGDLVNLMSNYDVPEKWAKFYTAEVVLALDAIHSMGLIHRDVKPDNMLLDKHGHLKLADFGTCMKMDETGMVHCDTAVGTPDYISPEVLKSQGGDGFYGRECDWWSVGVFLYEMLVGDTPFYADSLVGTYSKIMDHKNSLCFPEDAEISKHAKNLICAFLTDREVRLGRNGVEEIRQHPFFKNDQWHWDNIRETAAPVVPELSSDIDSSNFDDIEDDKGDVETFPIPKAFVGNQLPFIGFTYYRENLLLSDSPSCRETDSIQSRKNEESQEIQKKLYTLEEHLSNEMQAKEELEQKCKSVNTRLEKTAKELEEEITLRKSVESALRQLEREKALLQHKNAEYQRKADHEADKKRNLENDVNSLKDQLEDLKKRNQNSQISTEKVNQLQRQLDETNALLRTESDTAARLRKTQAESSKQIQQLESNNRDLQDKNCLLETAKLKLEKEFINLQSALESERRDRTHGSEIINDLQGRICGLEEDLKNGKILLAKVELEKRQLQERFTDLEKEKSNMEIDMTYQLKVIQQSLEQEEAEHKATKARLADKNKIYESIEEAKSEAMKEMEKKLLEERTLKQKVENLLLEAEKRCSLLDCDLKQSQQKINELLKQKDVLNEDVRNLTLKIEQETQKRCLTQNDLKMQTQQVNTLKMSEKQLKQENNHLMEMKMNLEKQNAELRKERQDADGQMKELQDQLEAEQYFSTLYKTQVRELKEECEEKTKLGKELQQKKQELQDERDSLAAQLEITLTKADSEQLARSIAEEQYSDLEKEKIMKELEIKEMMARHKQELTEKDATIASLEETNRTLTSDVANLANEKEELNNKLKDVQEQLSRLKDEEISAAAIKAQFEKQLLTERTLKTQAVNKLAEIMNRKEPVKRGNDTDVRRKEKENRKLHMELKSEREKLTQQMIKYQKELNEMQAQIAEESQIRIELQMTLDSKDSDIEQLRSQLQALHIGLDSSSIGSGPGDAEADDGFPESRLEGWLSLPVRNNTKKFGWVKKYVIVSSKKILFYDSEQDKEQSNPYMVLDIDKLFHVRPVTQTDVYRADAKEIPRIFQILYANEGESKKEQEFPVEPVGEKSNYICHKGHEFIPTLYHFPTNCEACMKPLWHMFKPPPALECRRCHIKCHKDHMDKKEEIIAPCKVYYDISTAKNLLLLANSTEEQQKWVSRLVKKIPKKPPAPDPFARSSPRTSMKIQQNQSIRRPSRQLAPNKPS

| pIC50 [1] | pIC50 [2] | Structure (SMILES) |
| --- | --- | --- |
| 6.00 to 7.00 | 6.00 to 7.00 | CCn1cncc1C(=O)Nc1ccc(-c2n[nH]c(=O)c3ccccc23)cc1 [Example 233, 1-ethyl-N-[4-(4-oxo-3,4-dihydrophthalazin-1-yl)phenyl]-1H-imidazole-5-carboxamide] |
| 7.00 to 10.00 | 7.00 to 10.00 | Cc1nn(-c2ccccc2)cc1C(=O)Nc1ccc(-c2n[nH]c(=O)c3ccccc23)cc1 [Example 228, 3-methyl-N-[4-(4-oxo-3,4-dihydrophthalazin-1-yl)phenyl]-1-phenyl-1H-pyrazole-4-carboxamide] |
| 7.00 to 10.00 | 7.00 to 10.00 | Cn1nc2ccccc2c1C(=O)Nc1ccc(-c2n[nH]c(=O)c3ccccc23)cc1 [Example 131, 2-methyl-N-[4-(4-oxo-3,4-dihydrophthalazin-1-yl)phenyl]-2H-indazole-3-carboxamide] |
| 4.30 to 6.00 | 4.30 to 6.00 | COc1ccc(N2CCN(C(=O)Cc3ccc(-c4n[nH]c(=O)c5ccccc45)cc3)CC2)cc1 [Example 16, 4-(4-{2-[4-(4-methoxyphenyl)piperazin-1-yl]-2-oxoethyl}phenyl)-1,2-dihydrophthalazin-1-one] |
| 7.00 to 10.00 | 7.00 to 10.00 | Cn1nc(C(=O)Nc2ccc(-c3n[nH]c(=O)c4ccccc34)cc2)cc1C(C)(C)C [Example 206, 5-tert-butyl-1-methyl-N-[4-(4-oxo-3,4-dihydrophthalazin-1-yl)phenyl]-1H-pyrazole-3-carboxamide] |
| 7.00 to 10.00 | 7.00 to 10.00 | COc1ccc2c(c1)N(C(=O)Cc1ccc(-c3n[nH]c(=O)c4ccccc34)cc1)CC2 [Example 41, 4-{4-[2-(6-methoxy-2,3-dihydro-1H-indol-1-yl)-2-oxoethyl]phenyl}-1,2-dihydrophthalazin-1-one] |
| 7.00 to 10.00 | 7.00 to 10.00 | COCCOc1ccc2c(C(=O)Nc3ccc(-c4n[nH]c(=O)c5ccccc45)cc3)cnn2c1 [Example 175, 6-(2-methoxyethoxy)-N-[4-(4-oxo-3,4-dihydrophthalazin-1-yl)phenyl]pyrazolo[1,5-a]pyridine-3-carboxamide] |
| 7.00 to 10.00 | 6.00 to 7.00 | Cn1c(C(=O)Nc2ccc(-c3n[nH]c(=O)c4ccccc34)cc2)cc2ccccc21 [Example 90, 1-methyl-N-[4-(4-oxo-3,4-dihydrophthalazin-1-yl)phenyl]-1H-indole-2-carboxamide] |
| 7.00 to 10.00 | 6.00 to 7.00 | O=C(c1ccc2c(c1)CCN2C(=O)Cc1ccc(-c2n[nH]c(=O)c3ccccc23)cc1)N1CCOCC1 [Example 296, 4-(4-{2-[5-(morpholine-4-carbonyl)-2,3-dihydro-1H-indol-1-yl]-2-oxoethyl}phenyl)-1,2-dihydrophthalazin-1-one] |
| 6.00 to 7.00 | 6.00 to 7.00 | Cc1cccc(N2CCC(C(=O)Nc3ccc(-c4n[nH]c(=O)c5ccccc45)cc3)C2=O)c1 (centres unmarked) [Example 209, 1-(3-methylphenyl)-2-oxo-N-[4-(4-oxo-3,4-dihydrophthalazin-1-yl)phenyl]pyrrolidine-3-carboxamide] |
| 7.00 to 10.00 | 6.00 to 7.00 | O=C(Nc1ccc(-c2n[nH]c(=O)c3ccccc23)cc1)c1n[nH]c2ccc(Cl)cc12 [Example 114, 5-chloro-N-[4-(4-oxo-3,4-dihydrophthalazin-1-yl)phenyl]-1H-indazole-3-carboxamide] |
| 7.00 to 10.00 | 6.00 to 7.00 | Cn1cc(C(=O)Nc2ccc(-c3n[nH]c(=O)c4ccccc34)cc2)cn1 [Example 212, 1-methyl-N-[4-(4-oxo-3,4-dihydrophthalazin-1-yl)phenyl]-1H-pyrazole-4-carboxamide] |
| 7.00 to 10.00 | 7.00 to 10.00 | CN(C)c1ccc(C(=O)Nc2ccc(-c3c[nH]c(=O)c4ccccc34)cc2)cc1 [Example 245, 4-(Dimethylamino)-N-(4-(1-oxo-1,2-dihydroisoquinolin-4-yl)phenyl)benzamide] |
| 7.00 to 10.00 | 6.00 to 7.00 | CCOc1ccc2c(c1)N(C(=O)Cc1ccc(-c3c[nH]c(=O)c4ccccc34)cc1)CC2 [Example 254, 4-(4-(2-(6-Ethoxyindolin-1-yl)-2-oxoethyl)phenyl)isoquinolin-1(2H)-one] |
| 7.00 to 10.00 | 6.00 to 7.00 | COc1ccc2[nH]nc(C(=O)Nc3ccc(-c4n[nH]c(=O)c5ccccc45)cc3)c2c1 [Example 123, 5-methoxy-N-[4-(4-oxo-3,4-dihydrophthalazin-1-yl)phenyl]-1H-indazole-3-carboxamide] |
| 7.00 to 10.00 | 7.00 to 10.00 | O=C(Nc1ccc(-c2n[nH]c(=O)c3ccccc23)cc1)c1cnn2ccc(OCCN3CCOCC3)cc12 [Example 187, 5-[2-(morpholin-4-yl)ethoxy]-N-[4-(4-oxo-3,4-dihydrophthalazin-1-yl)phenyl]pyrazolo[1,5-a]pyridine-3-carboxamide] |
| 6.00 to 7.00 | 4.30 to 6.00 | O=C(Nc1ccc(-c2n[nH]c(=O)c3ccccc23)cc1)c1nc2ncccn2n1 [Example 112, N-[4-(4-oxo-3,4-dihydrophthalazin-1-yl)phenyl]-[1,2,4]triazolo[1,5-a]pyrimidine-2-carboxamide] |
| 7.00 to 10.00 | 7.00 to 10.00 | NC(=O)COc1ccc2c(c1)N(C(=O)Cc1ccc(-c3n[nH]c(=O)c4ccccc34)cc1)CC2 [Example 298, 2-((1-(2-(4-(4-Oxo-3,4-dihydrophthalazin-1-yl)phenyl)acetyl)indolin-6-yl)oxy)acetamide] |
| 7.00 to 10.00 | 6.00 to 7.00 | O=C(Nc1ccc(-c2n[nH]c(=O)c3ccccc23)cc1)c1cn2ccccc2n1 [Example 89, N-[4-(4-oxo-3,4-dihydrophthalazin-1-yl)phenyl]imidazo[1,2-a]pyridine-2-carboxamide] |
| 6.00 to 7.00 | 6.00 to 7.00 | O=C(Nc1ccc(-c2n[nH]c(=O)c3ccccc23)cc1)c1cnn2cccnc12 [Example 113, N-[4-(4-oxo-3,4-dihydrophthalazin-1-yl)phenyl]pyrazolo[1,5-a]pyrimidine-3-carboxamide] |
| 7.00 to 10.00 | 6.00 to 7.00 | O=C(Nc1ccc(-c2n[nH]c(=O)c3ccccc23)cc1)c1cnn(-c2ccc(Cl)cc2)c1 [Example 388, 1-(4-Chlorophenyl)-N-(4-(4-oxo-3,4-dihydrophthalazin-1-yl)phenyl)-1H-pyrazole-4-carboxamide] |
| 7.00 to 10.00 | 6.00 to 7.00 | O=C(O)CCn1nc(C(=O)Nc2ccc(-c3n[nH]c(=O)c4ccccc34)cc2)c2ccccc21 [Example 331, 3-(3-((4-(4-Pxo-3,4-dihydrophthalazin-1-yl)phenyl)carbamoyl)-1H-indazol-1-yl)propanoic acid] |
| 7.00 to 10.00 | 6.00 to 7.00 | CN1CCN(c2ccc(C(=O)Nc3ccc(-c4n[nH]c(=O)c5ccccc45)cc3)cc2)CC1 [Example 64, 4-(4-methylpiperazin-1-yl)-N-[4-(4-oxo-3,4-dihydrophthalazin-1-yl)phenyl]benzamide] |
| 7.00 to 10.00 | 6.00 to 7.00 | COCC(O)COc1ccn2ncc(C(=O)Nc3ccc(-c4n[nH]c(=O)c5ccccc45)cc3)c2c1 (centres unmarked) [Example 194, 5-(2-hydroxy-3-methoxypropoxy)-N-[4-(4-oxo-3,4-dihydrophthalazin-1-yl)phenyl]pyrazolo[1,5-a]pyridine-3-carboxamide] |
| 7.00 to 10.00 | 7.00 to 10.00 | COc1ccn2ncc(C(=O)Nc3ccc(-c4n[nH]c(=O)c5ccccc45)cc3)c2c1 [Example 182, 5-methoxy-N-[4-(4-oxo-3,4-dihydrophthalazin-1-yl)phenyl]pyrazolo[1,5-a]pyridine-3-carboxamide] |
| 7.00 to 10.00 | 7.00 to 10.00 | Cc1cc(C(=O)Nc2ccc(-c3n[nH]c(=O)c4ccccc34)cc2)nn1C(C)(C)C [Example 235, 1-tert-butyl-5-methyl-N-[4-(4-oxo-3,4-dihydrophthalazin-1-yl)phenyl]-1H-pyrazole-3-carboxamide] |
| 7.00 to 10.00 | 7.00 to 10.00 | CCOc1ccc2oc(C)c(C(=O)Nc3ccc(-c4n[nH]c(=O)c5ccccc45)cc3)c2c1 [Example 100, 5-ethoxy-2-methyl-N-[4-(4-oxo-3,4-dihydrophthalazin-1-yl)phenyl]-1-benzofuran-3-carboxamide] |

| Structure (SMILES) | pIC50 [1] | pIC50 [2] |
| --- | --- | --- |
| O=C(Nc1ccc(-c2n[nH]c(=O)c3ccccc23)cc1)c1nn(CCCO)c2ccccc12 [Example 164, 1-(3-hydroxypropyl)-N-[4-(4-oxo-3,4-dihydrophthalazin-1-yl)phenyl]-1H-indazole-3-carboxamide] | 7.00 to 10.00 | 7.00 to 10.00 |
| COc1ccc2c(c1)CN(C(=O)Oc1ccc(-c3c[nH]c(=O)c4ccc(OC)cc34)cc1)C2 [Example 267, 4-(6-Methoxy-1-oxo-1,2-dihydroisoquinolin-4-yl)phenyl 5-methoxyisoindoline-2-carboxylate] | 7.00 to 10.00 | 6.00 to 7.00 |
| O=C(Nc1ccc(-c2n[nH]c(=O)c3ccccc23)cc1)c1ccccc1 [Example 67, N-[4-(4-oxo-3,4-dihydrophthalazin-1-yl)phenyl]benzamide] | 7.00 to 10.00 | 6.00 to 7.00 |
| Cn1nc(C(=O)Nc2ccc(-c3n[nH]c(=O)c4ccccc34)cc2)c2ccccc21 [Example 98, 1-methyl-N-[4-(4-oxo-3,4-dihydrophthalazin-1-yl)phenyl]-1H-indazole-3-carboxamide] | 7.00 to 10.00 | 7.00 to 10.00 |
| COc1cc(NC(=O)c2nn(CC3CCOC3)c3ccccc23)ccc1-c1n[nH]c(=O)c2ccccc12 (centres unmarked) [Example 348, N-(3-Methoxy-4-(4-oxo-3,4-dihydrophthalazin-1-yl)phenyl)-1-((tetrahydrofuran-3-yl)methyl)-1H-indazole-3-carboxamide] | 7.00 to 10.00 | 6.00 to 7.00 |
| O=C(Nc1ccc(-c2n[nH]c(=O)c3ccccc23)cc1)c1nn(CC2CCOC2)c2ccccc12 (centres unmarked) [Example 146, N-[4-(4-oxo-3,4-dihydrophthalazin-1-yl)phenyl]-1-(oxolan-3-ylmethyl)-1H-indazole-3-carboxamide] | 7.00 to 10.00 | 7.00 to 10.00 |
| COCCCn1nc(C(=O)Nc2ccc(-c3n[nH]c(=O)c4ccccc34)cc2)c2ccccc21 [Example 163, 1-(3-methoxypropyl)-N-[4-(4-oxo-3,4-dihydrophthalazin-1-yl)phenyl]-1H-indazole-3-carboxamide] | 7.00 to 10.00 | 7.00 to 10.00 |
